# In ChEMBL document CHEMBL1148751, “Optimization of the indenone ring of indenoisoquinoline topoisomerase I inhibitors” (2007):
# What was measured:
# Assay type in all cases: functional
# [1] = system: HOP-62; assay: Cytotoxicity against human HOP62 cells
# [2] = system: HCT-116; assay: Cytotoxicity against human HCT116 cells
# [3] = system: SF-539; assay: Cytotoxicity against human SF539 cells
# [4] = system: UACC-62; assay: Cytotoxicity against human UACC62 cells
# [5] = system: OVCAR-3; assay: Cytotoxicity against human OVCAR-3 cells
# [6] = system: SN12C; assay: Cytotoxicity against human SN12C cells
# [7] = system: DU-145; assay: Cytotoxicity against human DU145 cells
# [8] = system: MDA-MB-435; assay: Cytotoxicity against human MDA-MB-435 cells
smiles,measurement,setting,value
[N-]=[N+]=NCCCn1c2c(c3ccc([N+](=O)[O-])cc3c1=O)C(=O)c1cc(Br)ccc1-2,GI50,[1],56.2 µM
same,GI50,[2],3.02 µM
same,GI50,[3],> 100 µM
same,GI50,[4],> 100 µM
same,GI50,[5],> 100 µM
same,GI50,[6],> 100 µM
same,GI50,[7],14.8 µM
same,GI50,[8],> 100 µM
[N-]=[N+]=NCCCn1c2c(c3ccc([N+](=O)[O-])cc3c1=O)C(=O)c1cc(I)ccc1-2,GI50,[1],1.82 µM
same,GI50,[2],2.14 µM
same,GI50,[3],2.24 µM
same,GI50,[4],3.31 µM
same,GI50,[5],18.2 µM
same,GI50,[6],3.89 µM
same,GI50,[7],1.78 µM
same,GI50,[8],34.7 µM
N#Cc1ccc2c(c1)C(=O)c1c-2n(CCCN=[N+]=[N-])c(=O)c2cc([N+](=O)[O-])ccc12,GI50,[1],15.1 µM
same,GI50,[2],3.89 µM
same,GI50,[3],> 50.1 µM
same,GI50,[4],3.63 µM
same,GI50,[5],> 50.1 µM
same,GI50,[6],46.8 µM
same,GI50,[7],7.08 µM
same,GI50,[8],> 50.1 µM
CCc1ccc2c(c1)C(=O)c1c-2n(CCCN)c(=O)c2cc([N+](=O)[O-])ccc12,GI50,[1],1.38 µM
same,GI50,[2],0.575 µM
same,GI50,[3],1.58 µM
same,GI50,[4],1.48 µM
same,GI50,[5],1.58 µM
same,GI50,[6],1.48 µM
same,GI50,[7],0.776 µM
same,GI50,[8],1.55 µM
CSc1ccc2c(c1)C(=O)c1c-2n(CCCN)c(=O)c2cc([N+](=O)[O-])ccc12,GI50,[1],< 0.01 µM
same,GI50,[2],0.023 µM
same,GI50,[3],< 0.01 µM
same,GI50,[4],< 0.01 µM
same,GI50,[5],0.17 µM
same,GI50,[6],0.162 µM
same,GI50,[7],< 0.01 µM
same,GI50,[8],0.204 µM
CCOc1ccc2c(c1)C(=O)c1c-2n(CCCN=[N+]=[N-])c(=O)c2cc([N+](=O)[O-])ccc12,GI50,[1],3.02 µM
same,GI50,[2],1.82 µM
same,GI50,[3],3.89 µM
same,GI50,[4],2.88 µM
same,GI50,[5],20 µM
same,GI50,[6],5.25 µM
same,GI50,[7],3.89 µM
same,GI50,[8],39.8 µM
Cc1ccc2c(c1)C(=O)c1c-2n(CCCN=[N+]=[N-])c(=O)c2cc([N+](=O)[O-])ccc12,GI50,[1],72.4 µM
same,GI50,[2],20.4 µM
same,GI50,[3],> 100 µM
same,GI50,[4],30.2 µM
same,GI50,[5],> 100 µM
same,GI50,[6],58.9 µM
same,GI50,[7],> 100 µM
same,GI50,[8],> 100 µM
CSc1ccc2c(c1)C(=O)c1c-2n(CCCN=[N+]=[N-])c(=O)c2cc([N+](=O)[O-])ccc12,GI50,[1],0.603 µM
same,GI50,[2],0.776 µM
same,GI50,[3],0.891 µM
same,GI50,[4],0.708 µM
same,GI50,[5],3.89 µM
same,GI50,[6],1.05 µM
same,GI50,[7],1.15 µM
same,GI50,[8],6.03 µM
[N-]=[N+]=NCCCn1c2c(c3ccc([N+](=O)[O-])cc3c1=O)C(=O)c1cc(-c3ccccc3)ccc1-2,GI50,[1],> 100 µM
same,GI50,[2],> 100 µM
same,GI50,[3],> 100 µM
same,GI50,[4],> 100 µM
same,GI50,[5],> 100 µM
same,GI50,[6],> 100 µM
same,GI50,[7],> 100 µM
same,GI50,[8],> 100 µM
[N-]=[N+]=NCCCn1c2c(c3ccc([N+](=O)[O-])cc3c1=O)C(=O)c1cc(F)ccc1-2,GI50,[1],0.251 µM
same,GI50,[2],0.309 µM
same,GI50,[3],0.457 µM
same,GI50,[4],0.38 µM
same,GI50,[5],3.47 µM
same,GI50,[6],0.302 µM
same,GI50,[7],0.437 µM
same,GI50,[8],2.88 µM
CCOc1ccc2c(c1)C(=O)c1c-2n(CCCN)c(=O)c2cc([N+](=O)[O-])ccc12,GI50,[1],0.012 µM
same,GI50,[2],0.174 µM
same,GI50,[3],0.035 µM
same,GI50,[4],0.055 µM
same,GI50,[5],0.457 µM
same,GI50,[6],0.055 µM
same,GI50,[7],0.011 µM
same,GI50,[8],0.2 µM
CCc1ccc2c(c1)C(=O)c1c-2n(CCCN=[N+]=[N-])c(=O)c2cc([N+](=O)[O-])ccc12,GI50,[1],> 50.1 µM
same,GI50,[2],> 50.1 µM
same,GI50,[3],> 50.1 µM
same,GI50,[4],> 50.1 µM
same,GI50,[5],> 50.1 µM
same,GI50,[6],> 50.1 µM
same,GI50,[7],> 50.1 µM
same,GI50,[8],> 50.1 µM
COC(=O)c1ccc2c(c1)C(=O)c1c-2n(CCCN=[N+]=[N-])c(=O)c2cc([N+](=O)[O-])ccc12,GI50,[1],25.7 µM
same,GI50,[2],47.9 µM
same,GI50,[3],53.7 µM
same,GI50,[4],37.1 µM
same,GI50,[5],> 100 µM
same,GI50,[6],> 100 µM
same,GI50,[7],70.8 µM
same,GI50,[8],> 100 µM
